What follows are compounds tested on HMPV clinical isolate A2 strain TN 94-49 (assay: HMPV antiviral assay, Method 1 (LLC-MK2 cells, ATP-Lite)). Conditions: human metapneumovirus, hMPV A2 TN/94-49, LLC-MK2 cells.
Format: cell-based
Protocol: In vitro HMPV antiviral activity was evaluated using the clinical isolate A2 strain TN 94-49 (obtained from Dr. John Williams, Vanderbilt University, Tennessee) and LLC-MK2 cells (ATCC #CCL-7), an immortalized kidney epithelial cell line from Macaca mulatta. Compounds were resuspended in dimethyl sulfoxide (DMSO) at 10 mM, serially diluted and added to a 384-well source plate. Subsequently, the compounds were diluted and transferred onto 384-well assay plates using the Echo-650 automated liquid handling system (Beckman Coulter, Indiana). The test compounds were assessed in duplicate at a top concentration of 2 μM followed by 2.5-fold serial dilutions to give a total of 10 concentration points. DMSO control wells were also included on the assay plates and were either infected or not, acting as positive and negative controls. A2 TN 94-49 virus infections were performed in-suspension with LLC-MK2 cells. The cells were washed twice with PBS and removed from the cell-culture flask with 0.25% trypsin-EDTA (Thermo Fisher Scientific, MA). The trypsin-EDTA was inactivated by resuspending in 2% fetal bovine serum (FBS) and OptiMEM (ThermoFisher Scientific, MA) containing 1% penicillin-streptomycin. Cells were pelleted by centrifuging for 5 minutes at 800 rpm, the supernatant was removed, and cells were re-suspended and washed in PBS plus 100 μg/mL CaCl2). This step was performed twice. Cells were then re-suspended in serum-free (SF)-OptiMEM containing 4 μg/mL TPCK-Trypsin (Sigma Aldrich, MO), 1% penicillin-streptomycin (ThermoFisher Scientific, MA) and 100 μg/mL CaCl2). Cells were counted and seeded at a density of 5,000 cells/well, 12.5 μL/well. Virus infections were done at a multiplicity of infection (MOI) of 0.005 with 12.5 μL added per well. Virus infections were performed in infection media which contained SF-OptiMEM, 100 μg/mL CaCl2) and 1% penicillin-streptomycin. HMPV viral stocks are suspended in infection media+5% glycerol, thus an equal volume of infection media+5% glycerol was added to uninfected wells to equalize the final % glycerol across all wells of the assay plate. The final concentration of TPCK-trypsin was 2 μg/mL. The assay plates were incubated at 37° C., 5% CO2 for 7 days. After 7 days incubation, 12.5 μL of ATP-Lite (PerkinElmer, MA) was added to each well and the raw luminescence values were determined using the Envision 2104 (Perkin Elmer, MA). The average of the raw luminescence values for the cells and virus only positive control wells was subtracted from all conditions tested and the percent cell health was determined by dividing these values by the average of the cells only negative control wells. EC50 values were then calculated by non-linear regression using a four-parameter curve logistic equation. The curve fit model employed was XLFit Dose Response One Site Model 200: y=(A+(B/(1+((x/C)^D)))), where A is the minimum y value, B is the maximum y value, C is the log EC50 value, and D is the slope factor.

Row | EC50 | SMILES
1 | < 500 nM | COc1cc(C(=O)NC[C@@](O)(c2ccccc2)c2cc3c(c(-c4cc(Cl)c(F)cc4F)n2)OC[C@]3(C)C(N)=O)cc2cc(C)cnc12 [Example 80]
2 | < 500 nM | [2H]C([2H])([2H])c1nc2c(OC)cc(C(=O)NC[C@@](O)(c3ccccc3)c3cc4c(c(-c5ccc6c(c5)OC(F)(F)O6)n3)OC[C@]4(C)C(N)=O)cc2s1 [Example 9]
3 | < 500 nM | COc1cc(C(=O)NC[C@@](O)(c2ccccc2)c2cc3c(c(-c4cc(Cl)c(F)cc4F)n2)OC[C@]3(C)C(N)=O)cc2cc(C(F)(F)F)cnc12 [Example 83]
4 | < 500 nM | COc1cc(C(=O)NC[C@](O)(c2cc3c(c(-c4cc(Cl)c(F)cc4F)n2)OC[C@]3(C)C(N)=O)c2ccccc2F)cc2cn(C3CC3)nc12 [Example 136]
5 | < 500 nM | COc1cc(C(=O)NC[C@@](O)(c2ccccc2)c2cc3c(c(-c4cc(Cl)c(F)cc4F)n2)OC[C@]3(C)C(=O)NC2CC2)cc2cn(C3CC3)nc12 [Example 143]
6 | < 500 nM | COc1cc(C(=O)NC[C@@](O)(c2ccccc2)c2cc3c(c(-c4cc(Cl)c(F)cc4F)n2)OC[C@]3(C)C(N)=O)cc2cn(C(F)F)nc12 [Example 156]
7 | > 500 nM | COc1cc(C(=O)NC[C@](O)(c2cc3c(c(-c4cc(Cl)c(F)cc4F)n2)OC[C@]3(C)C(N)=O)c2cnn[nH]2)cc2cn(C3CC3)nc12 [Example 180]
8 | > 500 nM | COc1cc(C(=O)NC[C@](O)(c2cc3c(c(-c4cc(Cl)cc(C)c4F)n2)OC[C@]3(C)C(N)=O)C2CC2)cc2cn(C3CC3)nc12 [Example 47]
9 | > 500 nM | COc1cc(C(=O)NCC(O)(c2cc3c(c(-c4cc(Cl)c(F)cc4F)n2)OC[C@]3(C)C(N)=O)c2cc3ccccc3s2)cc2cn(C3CC3)nc12 (stereo partly shown) [Example 469]
10 | > 500 nM | COc1cc(C(=O)NC[C@@](O)(c2cc3c(c(-c4cc(Cl)c(F)cc4F)n2)OC[C@]3(C)C(N)=O)c2cnn[nH]2)cc2cn(C3CC3)nc12 [Example 181]
11 | > 500 nM | [2H]C([2H])([2H])c1nc2c(OC(F)F)cc(C(=O)NC[C@](O)(c3cc4c(c(-c5cc(Cl)c(F)cc5F)n3)OC[C@]4(C)C(N)=O)C3CC3)cc2cc1Br [Example 11]
12 | > 500 nM | COc1cc(C(=O)NC[C@](O)(c2cc3c(c(-c4cc(F)c(F)cc4F)n2)OC[C@]3(C)C(N)=O)C2CC2)cc2cc(C(F)(F)F)cnc12 [Example 46]
13 | < 500 nM | COc1cc(C(=O)NC[C@@](O)(c2ccccc2)c2cc3c(c(-c4ccc5c(c4Cl)OC(F)(F)O5)n2)OC[C@]3(C)C(N)=O)cc2cn(C3(F)CC3)nc12 [Example 255]
14 | > 500 nM | [2H]C([2H])([2H])c1cc2cc(C(=O)NC[C@](O)(c3cc4c(c(-c5ccc(F)c(Cl)c5)n3)OC[C@]4(C)C(N)=O)C(F)(F)F)cc(OC)c2nc1C [Example 20]
15 | < 500 nM | [2H]C([2H])([2H])c1nc2c(OC)cc(C(=O)NC[C@@](O)(c3ccccc3)c3cc4c(c(-c5cc(Cl)c(F)cc5F)n3)OC[C@]4(C)C(N)=O)cc2s1 [Example 155]
16 | < 500 nM | COc1cc(C(=O)NC[C@@](O)(c2ccccc2)c2cc3c(c(-c4ccc5c(c4Cl)OC(F)(F)O5)n2)OC[C@]3(C)C(N)=O)cc2cn(C(F)F)nc12 [Example 253]
17 | > 500 nM | COc1cc(C(=O)NC[C@](O)(c2cc3c(c(-c4cc(Cl)c(C)cc4F)n2)OC[C@]3(C)C(N)=O)C2CC2)cc2cn(C3CC3)nc12 [Example 51]
18 | < 500 nM | COc1cc(C(=O)NC[C@@](O)(c2ccccc2)c2cc3c(c(-c4cc(C(F)F)c(F)cc4F)n2)OC[C@]3(C)C(N)=O)cc2cn(C3CC3)nc12 [Example 288]
19 | < 500 nM | CCNC(=O)[C@@]1(C)COc2c1cc([C@@](O)(CNC(=O)c1cc(OC)c3nn(C4CC4)cc3c1)c1ccccc1)nc2-c1cc(Cl)c(F)cc1F [Example 142]
20 | < 500 nM | COc1ccc([C@](O)(CNC(=O)c2cc(OC)c3nn(C(F)F)cc3c2)c2cc3c(c(-c4cc(Cl)c(F)cc4F)n2)OC[C@]3(C)C(N)=O)cc1 [Example 167]

Row | EC50 | SMILES
21 | > 500 nM | COc1cc(C(=O)NC[C@](O)(c2cc3c(c(-c4cc(Cl)c(F)cc4F)n2)OC[C@]3(C)C(N)=O)C2CC2)cn2cc(C(F)F)nc12 [Example 78]
22 | < 500 nM | COc1cc(C(=O)NC[C@@](O)(c2ccccc2)c2cc3c(c(-c4cccc(Cl)c4Cl)n2)OC[C@]3(C)C(N)=O)cc2cn(C(F)F)nc12 [Example 261]
23 | < 500 nM | C[C@]1(C(N)=O)COc2c1cc([C@@](O)(CNC(=O)c1cc(OC(F)F)c3nn(C4CC4)cc3c1)C1CC1)nc2-c1ccc(F)c(F)c1Cl [Example 39]
24 | < 500 nM | COc1cc(C(=O)NC[C@@](O)(c2ccc(F)cc2)c2cc3c(c(-c4cc(Cl)c(F)cc4F)n2)OC[C@]3(C)C(N)=O)cc2cn(C(F)F)nc12 [Example 13]
25 | < 500 nM | [2H]C([2H])([2H])c1nc2c(OC)cc(C(=O)NC[C@](O)(c3cc4c(c(-c5cc(Cl)c(F)cc5F)n3)OC[C@]4(C)C(N)=O)C3CC3)cc2s1 [Example 10]
26 | < 500 nM | COc1cccc([C@](O)(CNC(=O)c2cc(OC)c3nc(C)c(Cl)cc3c2)c2cc3c(c(-c4cc(Cl)c(F)cc4F)n2)OC[C@]3(C)C(N)=O)c1 [Example 164]
27 | < 500 nM | C[C@]1(C(N)=O)COc2c1cc([C@@](O)(CNC(=O)c1cc(OC3CC3)c3nn(C4CC4)cc3c1)c1ccccc1)nc2-c1ccc2c(c1Cl)OC(F)(F)O2 [Example 252]
28 | < 500 nM | Cc1nc2ccc(C(=O)NC[C@@](O)(c3ccccc3)c3cc4c(c(-c5cc(Cl)c(F)cc5F)n3)OC[C@]4(C)C(N)=O)cc2o1 [Example 86]
29 | < 500 nM | [2H]C([2H])([2H])c1nc2c(OC)cc(C(=O)NC[C@](O)(c3cc4c(c(-c5ccc(F)c(Cl)c5Cl)n3)OC[C@]4(C)C(N)=O)C3CC3)cc2cc1Br [Example 24]
30 | < 500 nM | Cc1nc2ccc(C(=O)NC[C@@](O)(c3cccc(F)c3)c3cc4c(c(-c5ccc6c(c5Cl)OC(F)(F)O6)n3)OC[C@]4(C)C(N)=O)cc2o1 [Example 284]
31 | < 500 nM | COc1cc(C(=O)NC[C@](O)(c2cc3c(c(-c4cc(Cl)cc(Cl)c4Cl)n2)OC[C@]3(C)C(N)=O)C2CC2)cc2cn(C3CC3)nc12 [Example 61]
32 | > 500 nM | COc1cc(C(=O)NC[C@](O)(c2cc3c(c(-c4ccc(F)cc4O)n2)OC[C@]3(C)C(N)=O)C2CC2)cc2cn(C3CC3)nc12 [Example 63]
33 | < 500 nM | [2H]C([2H])([2H])c1nc2c(OC)cc(C(=O)NC[C@@](O)(c3cccc(OC)c3)c3cc4c(c(-c5cc(Cl)c(F)cc5F)n3)OC[C@]4(C)C(N)=O)cc2s1 [Example 163]
34 | < 500 nM | COc1cc(C(=O)NC[C@](O)(c2cc3c(c(-c4cc(F)c(F)c(F)c4Cl)n2)OC[C@]3(C)C(N)=O)C(F)(F)F)cc2cn(C3CC3)nc12 [Example 59]
35 | < 500 nM | COc1cc(C(=O)NC[C@@](O)(c2ccc(F)cc2)c2cc3c(c(-c4cc(Cl)c(F)cc4F)n2)OC[C@]3(C)C(N)=O)cc2cc(Cl)c(C)nc12 [Example 17]
36 | < 500 nM | [2H]C([2H])([2H])c1cc2cc(C(=O)NC[C@](O)(c3cc4c(c(-c5cc(Cl)c(F)cc5F)n3)OC[C@]4(C)C(N)=O)C3CC3)cc(OC)c2nc1C([2H])([2H])[2H] [Example 29]
37 | < 500 nM | COc1cc(C(=O)NC[C@@](O)(c2ccccc2)c2cc3c(c(-c4cc(Cl)c(F)cc4F)n2)OC[C@]3(C)C(N)=O)cc2cc(Cl)c(C)nc12 [Example 159]
38 | < 500 nM | [2H]C([2H])([2H])c1nc2c(OC)cc(C(=O)NC[C@@](O)(c3cccc(F)c3)c3cc4c(c(-c5ccc(F)c(Cl)c5Cl)n3)OC[C@]4(C)C(N)=O)cc2s1 [Example 272]
39 | < 500 nM | [2H]C([2H])([2H])c1nc2c(OC)cc(C(=O)NC[C@@](O)(c3ccsc3)c3cc4c(c(-c5cc(Cl)c(F)cc5F)n3)OC[C@]4(C)C(N)=O)cc2s1 [Example 176]

Each compound was assayed on HMPV clinical isolate A2 strain TN 94-49 (assay: HMPV antiviral assay, Method 2 (LLC-MK2 cells with CP-100-356, ATP-Lite)). Conditions: human metapneumovirus; hMPV A2 TN/94-49, LLC-MK2 cells with CP-100-356, Method 2.
Format: cell-based
In short: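 EC50 comes from a four-parameter fit of percent cell viability (ATP-Lite, normalized to virus-only and cell-only wells) after 7 days at 37 °C. Infection used HMPV A2 TN 94-49 at MOI 0.16 in LLC-MK2 cells, with 2 μM P-gp inhibitor CP-100-356 and 2 μg/mL TPCK-trypsin final; dose range 200 nM top, 2.5-fold, 10 points, duplicate.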

Row | EC50 | SMILES
40 | < 200 nM | COc1nccc(-c2nc([C@@](O)(CNC(=O)c3cc(Cl)c4nn(C5CC5)cc4c3)C(F)(F)F)cc3c2OC[C@]3(C)C(N)=O)c1Cl [Example 544]

Source: patent US20240368174A1, “Antiviral Heterocyclic Compounds” (Enanta Pharmaceuticals, Inc., priority 2023, published 2024)
